By IC50 is commonly meant the concentration that inhibits the measured activity by half. Read a low IC50 as greater potency in that assay.

Experiment [1] relates to HIV mutant strain K103N/Y181C. The experiment is described as follows: Cell-based assay using BH-10 cells, K103N/Y181C mutant. To be noted: Human immunodeficiency virus 1, read-out: EC50 K103N/Y181C, BH-10 cells, K103N/Y181C mutant.
Experiment [2] deals with HIV reverse transcriptase K103N (Human immunodeficiency virus type 1 group M subtype B, UniProt P03366, K702N). The experiment is described as follows: Enzyme assay, reverse transcriptase K103N. Format: biochemical, HIV-1. The source says: (§1) As used herein, “reverse transcriptase” or “RT” refers to an enzyme having a non-nucleoside inhibitory binding site similar to that of HIV-1 RT, and to which ligands, which bind the composite binding pocket of the compounds of the present invention, also will bind. One measure of RT activity is viral replication. A measure of HIV-1 viral replication is the automated assay that utilizes MTT, as described earlier in this specification. Another measure is the p24 core antigen enzyme immunoassay, such as, for example, the assay commercially available from Coulter Corporation/Immunotech, Inc.® (Westbrook, Mich.). Another means for measuring RT activity is by assaying recombinant HIV-1 reverse transcriptase activity, such as, for example, by using the Quan-T-RT™ assay system commercially available from Amersham® (Arlington Heights, Ill.) and as described by Bosworth et al., Nature, 1989, 341:167-168.
(§2) The 3-phosphoindoles can be assessed for their ability to inhibit reverse transcriptase activity in vitro according to standard screening methods.

In the next experiment the test system is HIV mutant strain Y181C. Put plainly: Cell-based assay using BH-10 cells, Y181C mutant. The conditions noted are these: Human immunodeficiency virus 1, read-out: EC50 Y181C, BH-10 cells, Y181C mutant.
A further experiment concerns HIV BH-10 WT. The experiment is described as follows: Cell-based assay using BH-10 cells, wild type. The conditions noted are these: Human immunodeficiency virus 1, read-out: EC50 WT///B, BH-10 cells, wild type.
Experiment [3] addresses HIV reverse transcriptase WT (Human immunodeficiency virus type 1 group M subtype B, UniProt P03366). Put plainly: Enzyme assay, reverse transcriptase WT. Format: biochemical, HIV-1.
From the text: as §1, §2

Experiment [4] concerns the target HIV reverse transcriptase K103N/Y181C (Human immunodeficiency virus type 1 group M subtype B, UniProt P03366, K702N/Y780C). Put plainly: Enzyme assay, reverse transcriptase K103N/Y181C. Format: biochemical, HIV-1.
From the text: as §1, §2

Experiment [5] deals with HIV reverse transcriptase Y181C (Human immunodeficiency virus type 1 group M subtype B, UniProt P03366, Y780C). The experiment is described as follows: Enzyme assay, reverse transcriptase Y181C. Format: biochemical, HIV-1.
From the text: as §1, §2

In the case of `CCOP(=O)(c1ccccc1)c1c(C(N)=O)[nH]c2ccc(Cl)cc12` (stereo not shown) [Compound 6a], the EC50 in experiment [1] is 16.4 nM; in the experiment on HIV mutant strain Y181C it was 13.7 nM; in the experiment with HIV BH-10 WT, 1.2 nM. Besides, the IC50 in experiment [2] was 1630 nM; in experiment [3] it was 722 nM; in experiment [4] it was more than 5000 nM; in experiment [5] it was 1970 nM.
Regarding `CCOP(=O)(c1cc(F)cc(F)c1)c1c(C(N)=O)[nH]c2ccc(Cl)cc12` (stereo not shown) [Compound 6ac], the values for the EC50 (in experiment [1]; in the experiment on HIV mutant strain Y181C; with HIV BH-10 WT) were more than 1250 nM, 986 nM and 3.7 nM, respectively. Besides, the IC50 is 12700 nM in experiment [2], 726 nM in experiment [3], more than 5000 nM in experiment [4] and 3500 nM in experiment [5].
For `CCOP(=O)(c1ccccc1F)c1c(C(N)=O)[nH]c2ccc(Cl)cc12` (stereo not shown) [Compound 6ad], the EC50 in experiment [1] was found to be 17 nM; with HIV mutant strain Y181C, 58.3 nM; in the experiment on HIV BH-10 WT, 0.9 nM. Besides, the IC50 in experiment [2] was 3290 nM; in experiment [3], 433 nM; in experiment [4] it was more than 5000 nM; in experiment [5], 4350 nM.
On to `CCOP(=O)(c1cc(C)cc(C)c1)c1c(C(N)=O)[nH]c2ccc(Cl)cc12` (stereo not shown) [Compound 6b], for which the results for the EC50 (in experiment [1]; with HIV mutant strain Y181C; in the experiment with HIV BH-10 WT) were 51.7 nM, 28 nM and 3 nM, respectively. The IC50 in experiment [2] was 2610 nM; in experiment [3], 1640 nM; in experiment [4] it was more than 5000 nM; in experiment [5], 4310 nM.
Take `CCOP(=O)(c1ccc(F)cc1)c1c(C(N)=O)[nH]c2ccc(Cl)cc12` (stereo not shown) [Compound 6c]: the EC50 was more than 1250 nM in experiment [1], more than 1250 nM in the experiment on HIV mutant strain Y181C and 34.5 nM in the experiment with HIV BH-10 WT. Also, the IC50 in experiment [2] was more than 5000 nM; in experiment [3], 3620 nM; in experiment [4], more than 5000 nM; in experiment [5], more than 5000 nM.
For `COP(=O)(c1ccccc1)c1c(C(N)=O)[nH]c2ccc(Cl)cc12` (stereo not shown) [Compound 7ah], the results for the EC50 (in experiment [1]; with HIV mutant strain Y181C; with HIV BH-10 WT) were 3.4 nM, 4.9 nM and 0.4 nM, respectively. For the same compound, the IC50 in experiment [2] was found to be 389 nM; in experiment [3] it was 309 nM; in experiment [4], 6750 nM; in experiment [5], 349 nM.
As to `COP(=O)(c1ccccc1)c1c(C(N)=O)[nH]c2ccccc12` (stereo not shown) [Compound 7ai], the EC50 worked out at 706 nM in experiment [1], 1110 nM in the experiment on HIV mutant strain Y181C and 1 nM in the experiment with HIV BH-10 WT. The IC50 in experiment [2] is 6590 nM; in experiment [3], 393 nM; in experiment [4], more than 5000 nM; in experiment [5], 5610 nM.
On to `CCOP(=O)(c1cc(C)cc(C)c1)c1c(C(=O)NCc2ccncc2)[nH]c2ccc(Cl)cc12` (stereo not shown) [Compound 9a], for which the figures for the EC50 (in experiment [1]; in the experiment on HIV mutant strain Y181C; in the experiment with HIV BH-10 WT) were 8 nM, 57.7 nM and 11 nM, respectively. The IC50 was 3360 nM in experiment [2], 3410 nM in experiment [3], more than 5000 nM in experiment [4] and 4490 nM in experiment [5].
For the compound `COP(=O)(c1ccccc1)c1c(C(=O)NCc2ccncc2)[nH]c2ccc(Cl)cc12` (stereo not shown) [Compound 18ar], the EC50 in experiment [1] is 3.9 nM; in the experiment on HIV mutant strain Y181C, 5.6 nM; with HIV BH-10 WT, 1 nM. In addition, the IC50 amounted to 930 nM in experiment [2], 156 nM in experiment [3], 1660 nM in experiment [4] and 489 nM in experiment [5].
Regarding `NC(=O)c1[nH]c2ccc(Cl)cc2c1P(=O)(c1ccccc1)c1ccccc1` [Compound 27a], the EC50 (in experiment [1]; in the experiment with HIV mutant strain Y181C; with HIV BH-10 WT) was more than 1250 nM each time. The IC50 in experiment [2], in experiment [3], in experiment [4] and in experiment [5] was more than 5000 nM each time.
In the case of `CP(=O)(c1ccccc1)c1c(C(N)=O)[nH]c2ccc(Cl)cc12` (stereo not shown) [Compound 29a], the EC50 in experiment [1] stood at 1380 nM; with HIV mutant strain Y181C, 266 nM; in the experiment with HIV BH-10 WT, 0.8 nM. The IC50 in experiment [2] is more than 5000 nM; in experiment [3], 233 nM; in experiment [4], more than 5000 nM; in experiment [5] it was 2520 nM.
With `CN(C)P(=O)(c1ccccc1)c1c(C(N)=O)[nH]c2ccc(Cl)cc12` (stereo not shown) [Compound 31a], the results for the EC50 (in experiment [1]; in the experiment with HIV mutant strain Y181C; in the experiment on HIV BH-10 WT) were more than 1250 nM, 467 nM and 13.9 nM, respectively. For the same compound, the IC50 in experiment [2] is more than 5000 nM; in experiment [3], 1400 nM; in experiment [4], more than 5000 nM; in experiment [5], more than 5000 nM.
In the case of `CCOP(=O)(c1cccs1)c1c(C(N)=O)[nH]c2ccc(Cl)cc12` (stereo not shown) [Compound 51], the EC50 was 65.6 nM in experiment [1], 52.9 nM in the experiment on HIV mutant strain Y181C and 2.2 nM in the experiment with HIV BH-10 WT.
Regarding `COP(=O)(c1ccsc1)c1c(C(N)=O)[nH]c2ccc(Cl)cc12` (stereo not shown) [Compound 52a], the EC50 is 6.3 nM in experiment [1], 1.5 nM with HIV mutant strain Y181C and 0.5 nM in the experiment with HIV BH-10 WT.
For `COP(=O)(c1cccs1)c1c(C(N)=O)[nH]c2ccc(Cl)cc12` (stereo not shown) [Compound 52b], the EC50 in experiment [1] stood at 2.5 nM; with HIV mutant strain Y181C, 8.7 nM; with HIV BH-10 WT, 0.5 nM.
`COP(=O)(CC=C(C)C)c1c(C(N)=O)[nH]c2ccc(Cl)cc12` (stereo not shown) [Compound 57b]: the values for the EC50 (in experiment [1]; in the experiment on HIV mutant strain Y181C; in the experiment on HIV BH-10 WT) were 174 nM, 13.1 nM and 0.8 nM, respectively.
The corresponding values for `COP(=O)(c1cc(F)cc(F)c1)c1c(C(=O)NCC#N)[nH]c2ccc(Cl)cc12` (stereo not shown) [Compound 59a] are 8.4 nM, 47.3 nM and 1.4 nM.
The corresponding values for `COP(=O)(c1cc(F)cc(F)c1)c1c(C(=O)NCCC#N)[nH]c2ccc(Cl)cc12` (stereo not shown) [Compound 59b] are 21.5 nM, 69.3 nM and 3.5 nM.
With `NC(=O)c1[nH]c2ccc(Cl)cc2c1P(=O)(O)c1ccccc1` [Compound 60a], the EC50 (in experiment [1]; with HIV mutant strain Y181C; in the experiment with HIV BH-10 WT) was more than 1250 nM throughout. Also, the IC50 in experiment [2], in experiment [3], in experiment [4] and in experiment [5] was more than 5000 nM each time.

Source of the values: patent US7534809B2, “Phospho-indoles as HIV inhibitors” (priority 2004, dated 2009).
